Structures are written as SMILES. Values after ≈ are worked out from the molar mass of the structure shown. Where only a bound is given, the exact number is not on record here.

This test deals with up to 32 different microorganisms. Nature of the test: in vitro antibacterial activity (MIC), agar dilution on Brain Heart Infusion (BHI) agar with Steers replicator. In kind it is cell-based. Particulars: unit assumed. The method, boiled down: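 Twelve plates carried successive aqueous dilutions of test compound in BHI agar; inocula were 1:100 dilutions (1:10 for slow growers such as Micrococcus, Streptococcus), incubated 35°-37° C for 20 to 24 hours. MIC was the lowest concentration giving no growth, slight haze, or sparse isolated colonies versus growth control.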
(In agar dilution the substance is mixed into plates at graded concentrations.)

The mark [1] stands for this setting: Candida albicans CCH 442 (code TT).
[2] abbreviates: Enterococcus faecism ATCC 8043 (code II).
The mark [3] stands for this setting: Escherichia coli DC-2 (code SS).
Where [4] appears, read: Escherichia coli JUHL (code QQ).
Setting [5] is: Micrococcus luteus ATCC 4698 (code PP).
The mark [6] stands for this setting: Micrococcus luteus ATCC 9341 (code OO).
Where [7] appears, read: Mycobacterium smegmatis ATCC 114 (code UU).
The mark [8] stands for this setting: Nocardia Asteroides ATCC9970 (code VV).
[9] abbreviates: Staphylococcus aureus 1775 (code GG).
[10] abbreviates: Staphylococcus aureus A-5278 (code CC).
Setting [11] is: Staphylococcus aureus ATCC 6538P (code AA).
The mark [12] stands for this setting: Staphylococcus aureus CMX 553 (code FF).
Where [13] appears, read: Staphylococcus aureus CMX 642A (code DD).
Setting [14] is: Staphylococcus aureus NCTC10649M (code EE).
Where [15] appears, read: Staphylococcus epidermidis 3519 (code HH).
Setting [16] is: Streptococcus agalactiae CMX 508 (code KK).
Setting [17] is: Streptococcus bovis A-5169 (code JJ).
The mark [18] stands for this setting: Streptococcus pyogenes 930 (code MM).
[19] abbreviates: Streptococcus pyogenes EES61 (code LL).
The mark [20] stands for this setting: Streptococcus pyogenes PIU 2548 (code NN).
The mark [21] stands for this setting: Haemophilis influenzae DILL AMP R (code WW).
The mark [22] stands for this setting: Staphylococcus aureus A5177 (code BB).
Where [23] appears, read: Streptococcus Pneumonia 5649 (code ZZA).
The mark [24] stands for this setting: Streptococcus Pneumonia 5979 (code ZZ).
[25] abbreviates: Streptococcus Pneumonia ATCC6303 (code XX).
[26] abbreviates: Streptococcus Pneumonia GYR 1171 (code YY).

With `CC[C@H]1OC(=O)[C@H](C)C(=O)[C@H](C)[C@@H](O[C@@H]2O[C@H](C)C[C@H](N(C)C)[C@H]2O)[C@@](C)(OCC=NOCc2ccc([N+](=O)[O-])cc2)C[C@@H](C)C(=O)[C@H](C)[C@H]2NC(=O)O[C@@]21C` [Example 230, Compound of Formula (IX): L is CO, T is NH, R is —CH2CH═NOCH2(4-NO2-phenyl)], the MIC runs as follows: (organism code AA) 0.1 µg/mL; (organism code BB) 0.1 µg/mL; (organism code CC) above 100 µg/mL; (organism code DD) 0.1 µg/mL; (organism code EE) 0.1 µg/mL; (organism code FF) 0.2 µg/mL. The MIC is, setting by setting: (organism code GG) above 100 µg/mL; (organism code HH) 0.1 µg/mL; (organism code II) 0.05 µg/mL; (organism code JJ) at most 0.005 µg/mL; (organism code KK) at most 0.005 µg/mL; (organism code LL) at most 0.005 µg/mL. Further, the MIC was above 100 µg/mL (organism code MM); 0.05 µg/mL (organism code NN); 0.05 µg/mL (organism code OO); 0.2 µg/mL (organism code PP); 100 µg/mL (organism code QQ); 0.39 µg/mL (organism code RR). Besides, the MIC is above 100 µg/mL (organism code SS); above 100 µg/mL (organism code TT); 0.78 µg/mL (organism code UU); 0.05 µg/mL (organism code VV); 2 µg/mL (organism code WW); 0.03 µg/mL (organism code XX). Also, the MIC (organism code YY) came out at 0.015 µg/mL, the MIC (organism code ZZ) was 128 µg/mL and the MIC (organism code ZZA) amounted to 0.25 µg/mL.

For the compound `CCC1OC(=O)C(C)C(=O)C(C)C(OC2OC(C)CC(N(C)C)C2O)C(C)(OCC=Cc2cnc3ccc([N+](=O)[O-])cc3c2)CC(C)C(=O)C(C)C2NC(=O)OC12C` (stereo not shown) [Example 195, R is —CH2CH═CH-(6-nitroquinolyl)], the MIC is above 100 µg/mL under setting [1]; 0.05 µg/mL (≈ 0.0617 µM) under setting [2]; 50 µg/mL (≈ 61.7 µM) under setting [3]; 50 µg/mL (≈ 61.7 µM) under setting [4]; 0.2 µg/mL (≈ 0.247 µM) (Escherichia coli SS (code RR)); 0.1 µg/mL (≈ 0.123 µM) under setting [5]. In addition, the MIC is 0.01 µg/mL (≈ 0.0123 µM) under setting [6]; 0.39 µg/mL (≈ 0.481 µM) under setting [7]; 0.05 µg/mL (≈ 0.0617 µM) under setting [8]; above 100 µg/mL under setting [9]; above 100 µg/mL under setting [10]; 0.05 µg/mL (≈ 0.0617 µM) under setting [11]. For the same compound, the MIC is, setting by setting: under setting [12], 0.05 µg/mL (≈ 0.0617 µM); under setting [13], 0.05 µg/mL (≈ 0.0617 µM); under setting [14], 0.05 µg/mL (≈ 0.0617 µM); under setting [15], 0.05 µg/mL (≈ 0.0617 µM); under setting [16], 0.05 µg/mL (≈ 0.0617 µM); under setting [17], 0.01 µg/mL (≈ 0.0123 µM). Besides, the MIC runs as follows: under setting [18], 1.56 µg/mL (≈ 1.92 µM); under setting [19], 0.02 µg/mL (≈ 0.0247 µM); under setting [20], 0.1 µg/mL (≈ 0.123 µM).

With `C=CCO[C@@]1(C)C[C@@H](C)C(=O)[C@H](C)[C@H]2N(C)C(=O)O[C@]2(C)[C@@H](CC)OC(=O)[C@H](C)C(=O)[C@H](C)[C@H]1O[C@@H]1O[C@H](C)C[C@H](N(C)C)[C@H]1O` [Example 179, Compound of Formula (IX): L is CO, T is N(CH3), R is —CH2CH═CH2], the MIC is, setting by setting: under setting [1], above 100 µg/mL; under setting [2], 1.56 µg/mL; under setting [3], above 100 µg/mL; under setting [4], above 100 µg/mL; (Escherichia coli SS (code RR)) 6.2 µg/mL; under setting [21], above 128 µg/mL. The same compound gave an MIC under setting [5] of 3.1 µg/mL; an MIC under setting [6] of 1.56 µg/mL; an MIC under setting [7] of 12.5 µg/mL; an MIC under setting [8] of 3.1 µg/mL; an MIC under setting [9] above 100 µg/mL; an MIC under setting [22] of 6.2 µg/mL. Moreover, the MIC runs as follows: under setting [10], above 100 µg/mL; under setting [11], 6.2 µg/mL; under setting [12], 6.2 µg/mL; under setting [13], 6.2 µg/mL; under setting [14], 6.2 µg/mL; under setting [15], 12.5 µg/mL. Moreover, the MIC is 0.5 µg/mL under setting [23]; above 128 µg/mL under setting [24]; 0.5 µg/mL under setting [25]; 0.5 µg/mL under setting [26]; 0.39 µg/mL under setting [16]; 0.39 µg/mL under setting [17]. Also, the MIC is above 100 µg/mL under setting [18], 0.39 µg/mL under setting [19] and 0.78 µg/mL under setting [20].

The compound `CC[C@H]1OC(=O)[C@H](C)C(=O)[C@H](C)[C@@H](O[C@@H]2O[C@H](C)C[C@H](N(C)C)[C@H]2O)[C@@](C)(OCC=Cc2cnc3ccccc3c2)C[C@@H](C)C(=O)[C@H](C)[C@H]2N(C)C(=O)O[C@]12C` [Example 180, Compound of Formula (IX): L is CO, T is N(CH3), R is —CH2CH═CH-(3-quinolyl)] registered an MIC under setting [1] above 100 µg/mL; an MIC under setting [2] of 0.05 µg/mL; an MIC under setting [3] above 100 µg/mL; an MIC under setting [4] above 100 µg/mL; an MIC (Escherichia coli SS (code RR)) of 0.2 µg/mL; an MIC under setting [21] of 4 µg/mL. Moreover, the MIC is 0.1 µg/mL under setting [5]; 0.02 µg/mL under setting [6]; 0.2 µg/mL under setting [7]; 0.1 µg/mL under setting [8]; above 100 µg/mL under setting [9]; 0.1 µg/mL under setting [22]. Also, the MIC by setting is: under setting [10], above 100 µg/mL; under setting [11], 0.1 µg/mL; under setting [12], 0.1 µg/mL; under setting [13], 0.1 µg/mL; under setting [14], 0.1 µg/mL; under setting [15], 0.1 µg/mL. In addition, the MIC reads like this: under setting [23], 0.25 µg/mL; under setting [24], 128 µg/mL; under setting [25], 0.03 µg/mL; under setting [26], 0.03 µg/mL; under setting [16], 0.05 µg/mL; under setting [17], 0.02 µg/mL. The MIC reads like this: under setting [18], 25 µg/mL; under setting [19], 0.02 µg/mL; under setting [20], 0.2 µg/mL.

Take `CCC1OC(=O)C(C)C(=O)C(C)C(OC2OC(C)CC(N(C)C)C2O)C(C)(OCC=Cc2ccc3[nH]cnc3c2)CC(C)C(=O)C(C)C2NC(=O)OC12C` (stereo not shown) [Example 205, R is —CH2CH═CH-(5-benzimidazolyl)]: the MIC (organism code XX) came out at 0.03 µg/mL (≈ 0.0397 µM), the MIC (organism code YY) came out at 0.06 µg/mL (≈ 0.0795 µM), the MIC (organism code ZZ) was above 64 µg/mL and the MIC (organism code ZZA) was found to be 4 µg/mL (≈ 5.3 µM).

For `CC[C@H]1OC(=O)[C@H](C)C(=O)[C@H](C)[C@@H](O[C@@H]2O[C@H](C)C[C@H](N(C)C)[C@H]2O)[C@@](C)(OCC#Cc2ccc(C(=O)Nc3ccccn3)o2)C[C@@H](C)C(=O)[C@H](C)[C@H]2NC(=O)O[C@@]21C` [Example 256], the MIC is 0.05 µg/mL (≈ 0.0608 µM) (organism code AA); 0.05 µg/mL (≈ 0.0608 µM) (organism code BB); above 100 µg/mL (organism code CC); 0.05 µg/mL (≈ 0.0608 µM) (organism code DD); 0.05 µg/mL (≈ 0.0608 µM) (organism code EE); 0.02 µg/mL (≈ 0.0243 µM) (organism code FF). The MIC by setting is: (organism code GG) above 100 µg/mL; (organism code HH) 0.1 µg/mL (≈ 0.122 µM); (organism code II) 0.02 µg/mL (≈ 0.0243 µM); (organism code JJ) 0.01 µg/mL (≈ 0.0122 µM); (organism code KK) 0.02 µg/mL (≈ 0.0243 µM); (organism code LL) 0.01 µg/mL (≈ 0.0122 µM). Also, the MIC reads like this: (organism code MM) 25 µg/mL (≈ 30.4 µM); (organism code NN) 0.2 µg/mL (≈ 0.243 µM); (organism code OO) 0.01 µg/mL (≈ 0.0122 µM); (organism code PP) 0.1 µg/mL (≈ 0.122 µM); (organism code QQ) 100 µg/mL (≈ 122 µM); (organism code RR) 0.2 µg/mL (≈ 0.243 µM). Further, the MIC by setting is: (organism code SS) above 100 µg/mL; (organism code TT) above 100 µg/mL; (organism code UU) 1.56 µg/mL (≈ 1.9 µM); (organism code VV) 0.05 µg/mL (≈ 0.0608 µM); (organism code WW) 2 µg/mL (≈ 2.43 µM); (organism code XX) 0.03 µg/mL (≈ 0.0365 µM). This compound displayed an MIC (organism code YY) of 0.03 µg/mL (≈ 0.0365 µM), an MIC (organism code ZZ) of 16 µg/mL (≈ 19.4 µM) and an MIC (organism code ZZA) of 0.25 µg/mL (≈ 0.304 µM).

`CC[C@H]1OC(=O)[C@H](C)C(=O)[C@H](C)[C@@H](O[C@@H]2O[C@H](C)C[C@H](N(C)C)[C@H]2O)[C@@](C)(OCC=Cc2ccccc2)C[C@@H](C)C(=O)[C@H](C)[C@@H](O)[C@]1(C)O` [Example 14, Compound of Formula (VIII): X is O, R is —CH2CH═CH-Phenyl]: the MIC is, setting by setting: under setting [1], above 100 µg/mL; under setting [2], 0.78 µg/mL; under setting [3], above 100 µg/mL; under setting [4], above 100 µg/mL; (Escherichia coli SS (code RR)) 6.2 µg/mL; under setting [21], 128 µg/mL. The MIC was 0.78 µg/mL under setting [5]; 0.39 µg/mL under setting [6]; 3.1 µg/mL under setting [7]; 3.1 µg/mL under setting [8]; above 100 µg/mL under setting [9]; 1.56 µg/mL under setting [22]. The MIC runs as follows: under setting [10], above 100 µg/mL; under setting [11], 1.56 µg/mL; under setting [12], 3.1 µg/mL; under setting [13], 3.1 µg/mL; under setting [14], 3.1 µg/mL; under setting [15], 1.56 µg/mL. Besides, the MIC by setting is: under setting [23], 2 µg/mL; under setting [24], 128 µg/mL; under setting [25], 1 µg/mL; under setting [26], 0.25 µg/mL; under setting [16], 0.2 µg/mL; under setting [17], 0.2 µg/mL. Also, the MIC runs as follows: under setting [18], 50 µg/mL; under setting [19], 0.39 µg/mL; under setting [20], 0.78 µg/mL.

The record behind these values is patent USRE39591E1, “6-O-substituted ketolides having antibacterial activity” (Abbott Laboratories, priority 1996, dated 2007).
